Legend:
[1] = tested on: Sol2-GFP, Sol3-GFP and Rpe1-GFP; assay: fluorescence microscopy of GFP-tagged pentose phosphate pathway proteins; format: cell-based, S. cerevisiae; details: 2 mM coniferyl aldehyde
Zwf1 = Zwf1 protein quantification by western blot; format: cell-based, S. cerevisiae; details: 2 mM coniferyl aldehyde, 2 hours at 30° C.; ρ=0.00176
Description: Protein quantification was carried out by western blots as follows. Overnight cultures of wild type cells were diluted in fresh YPD medium to a final OD600 of 0.1. These were grown at 30° C. until they reached the early log phase. Subsequently, coniferyl aldehyde was added to the cultures to a final concentration of 2 mM and the cultures were further incubated for 2 hours. Whole cell extracts (WCE) were obtained by centrifugation of the cells (3000 rpm for 3 min; 4° C.), washing of cell pellet with chilled sterile water and cell lysis using the Trichloroacetic acid (TCA) protocol (Kao and Osley, 2003, Methods. 31,59-66). Equal number of cells was used for the TCA lysis and equal volumes of WCE were used for the quantitative western blot analysis. […] Prior to the protein level quantification, the linear range of the target protein Zwf1 was determined by loading seven 2-fold dilutions of the WCE to obtain a standard curve of protein load versus band intensity of Zwf1. The amount of Zwf1 in the coniferyl aldehyde treated cultures and the control was quantified using the Image Lab software as previously described (Taylor and Posch, 2014, BioMed Research International. 2014, 361590). This was calculated as the ratio of the Zwf1 band intensity to the intensity of bands in the entire lane signal using the TGX Stain-Free Fast Cast (total proteins). […]

Zwf1-GFP [2] = assay: Zwf1-GFP fluorescence microscopy; format: cell-based, S. cerevisiae
Description: For the microscopy studies, wild type cells expressing endogenously tagged Zwf1-GFP (YKB4825) were grown to mid log in YPD, prior to being washed and resuspended in YPD medium (Untreated) or YPD medium containing 2 mM coniferyl aldehyde (CA) for 120 min at 30° C. Images (FIG. 8A) are representative of three independent experiments where a minimum of 100 cells each were imaged. Scale bar represents 10 μm.

[3] = tested on: wild-type cells expressing PEX3-RFP, SEC13-RFP or CIT1-RFP; assay: co-localization of ROS signal with organelle markers; format: cell-based, S. cerevisiae
Source text: (§1) For co-localization studies, images were obtained as Z-stacks. Co-localization of the fluorescence signals were quantified using the IMARIS software 9.2.1 (Bitplane; http://www.bitplane.com) and a Manders' overlap co-efficient (Manders et al., 1993, Journal of Microscopy. 169, 375-382) was used to evaluate the fraction of RFP pixels (organelle marker) also positive for GFP pixels ([…]). The closer the value is to one, the higher the level of co-localization. The analysis was complemented by performing an object-based quantification where the percentage volume of ROS that localized to the mitochondria and endoplasmic reticulum was measured.

[4] = tested on: Saccharomyces cerevisiae ethanol red; details: commercial Saccharomyces cerevisiae ethanol red; Adeboye et al., 2014; cited from earlier work
Zwf1-GFP [5] = assay: co-localization of Zwf1-GFP with mitochondrial and ER markers; format: cell-based, S. cerevisiae
Source text: as §1
A strain expressing endogenously tagged Zwf1-GFP and either the mitochondrial marker CIT1-RFP or the ER marker SEC13-RFP were imaged as described in Example 5 both before and after 2 hours of treatment with 2 mM coniferyl aldehyde. […] Using the object-based analysis, the percentage volume of Zwf1 localizing to the mitochondria was measured as 47.10±8.04%. Likewise, co-localization of Zwf1-GFP to the ER marker Sec13-RFP was observed, though to a lesser extent, and confirmed by a quantitative analysis using a Mander's overlap co-efficient (0.22±0.07). (FIG. 11B).

bna7Δ (YKB4649) = assay: serial dilution spot assay on YPD agar plates; format: cell-based, S. cerevisiae; details: 10 mM FA, 35 mM 4-HBA or 1 mM CA, 48 hr at 30° C.
Description: In addition, deletion mutants were generated for genes involved in the tryptophan catabolic pathway and their growth was assayed on solid media containing 10 mM ferulic acid. In particular, wild type yeast (BY4741) along with deletion mutants aro8Δ (YKB4799), bna7Δ (YKB4649), bna2Δ (YKB4798), bna6Δ (YKB4844), bna5Δ (YKB4845), bna4Δ (YKB4846) and bna1Δ (YKB4729) were grown to mid log phase ([…] 0.5-0.6) in YPD medium prior to being diluted to an OD600 of 0.1. Four 10-fold serial dilutions were spotted onto YPD agar plates either containing 10 mM ferulic acid or no ferulic acid. Plates were incubated for 48 hr at 30° C. Images of the plates were taken with the ChemiDoc XRS Molecular Imaging system (Biorad) and images are representative of three biological replicates.
Experiments were also conducted to determine if deletion of BNA7 could provide protection to 4-hydroxybenzoic acid or coniferyl aldehyde (CA). Wild type (BY4741) and bna7A (YKB4649) strains were grown to mid log phase in YPD medium prior to being diluted into fresh medium to an OD600 of 0.1. Four 10-fold serial dilutions were spotted onto YPD agar plates containing either no compound (Untreated), 10 mM ferulic acid (FA), 35 mM 4-hydroxybenzoic acid (4-HBA) or 1 mM coniferyl aldehyde (CA). Plates were incubated for 48 hr at 30° C. and images are representative of three biological replicates.

[6] = 2 mM coniferyl aldehyde, object-based analysis
[7] = 2 hours of treatment with 2 mM coniferyl aldehyde

Compound: COc1cc(C=CC=O)ccc1O [coniferyl aldehyde, 4-hydroxy-3-methoxycinnamaldehyde]
- localization of Sol2-GFP, Sol3-GFP and Rpe1-GFP signal [1]: concentration of signal into punctate structures
- increase in Zwf1 protein levels compared to untreated (Zwf1): 1.5 fold
- Zwf1-GFP fluorescence signal/cell (Zwf1-GFP [2]; 2 mM CA for 120 min at 30° C. (ρ=9.69E-5), ferulic acid 10 mM): significant increase
- Zwf1-GFP localization (Zwf1-GFP [2]; 2 mM coniferyl aldehyde, 2 hours): punctuate localization
- Manders' overlap co-efficient, ROS with ER marker SEC13-RFP ([3]; 2 mM coniferyl aldehyde): 0.13±0.1
- Manders' overlap co-efficient, ROS with mitochondria marker CIT1-RFP ([3]; 2 mM coniferyl aldehyde): 0.45±0.04
- percentage volume of ROS that localized to the mitochondria [3, 6]: 54.1±17.29%
- total volume of ROS that localized to the ER [3, 6]: 26.5±12.8%
- localization of ROS to peroxisomes ([3]; 2 mM coniferyl aldehyde, peroxisome marker PEX3-RFP): did not localize to the peroxisomes
- mitochondrial fragmentation ([3]; after 2 hours of coniferyl aldehyde treatment): high degree of mitochondrial fragmentation
- concentration at which the compound kills the yeast [4]: 1 mM
- Mander's overlap co-efficient, Zwf1-GFP with ER marker Sec13-RFP (Zwf1-GFP [5]; [7]): 0.22±0.07
- Manders' overlap coefficient, Zwf1-GFP with mitochondrial marker CIT1-RFP (Zwf1-GFP [5]; [7]): 0.34±0.07
- percentage volume of Zwf1 localizing to the mitochondria (Zwf1-GFP [5]; 2 hours, 2 mM coniferyl aldehyde, object-based analysis): 47.10±8.04%
- resistance of bna7Δ / protection by deletion of BNA7 (bna7Δ (YKB4649)): does not provide protection

Reference: patent US11555210B2, “Microbe having increased tolerance to phenolic fermentation inhibitors” (University of Ottawa, priority 2018, dated 2023)
